Values quoted from earlier work, collected in US20120211706A1, “POLYDENTATE LIGAND METAL COMPLEX” (SUMITOMO CHEMICAL COMPANY, LIMITED, priority 2009, published 2012).
Counter-ions that a name gives are not always drawn.

Details: 1N aqueous sulfuric acid solution

Q: For C=C[C@H]1C[N@@]2CC[C@H]1C[C@H]2[C@H](O)c1ccnc2ccc(OC)cc12 [quinine sulfate], which “emission quantum yield of standard sample” value is on record?
A: The value was 55%.
